This is an account of results in PMC4503722, “Novel Phenotypic Outcomes Identified for a Public Collection of Approved Drugs from a Publicly Accessible Panel of Assays” (PLoS ONE, 2015).

Holding throughout (assay): cells
In one assay the test system is HeLa cells. The class given is cell-based. As to conditions: for EC50: read-out: CellCycle G2/M.
For a further assay, the system named is INS-1E cells. The class given is cell-based, rat.
The test system of another assay is SW480. The class given is cell-based.
The subject of a further assay is DLD-1. The class given is cell-based.
Assay [1] deals with endothelial tube formation in co-cultures of ECFCs and ADSCs treated with VEGF. The assay is classed as cell-based, human.
The test system of a further assay is HCT116. The class given is cell-based.
Another assay concerns SNU-C1. The class given is cell-based.
Assay [2] deals with HCT116 cells treated with a GSK3β inhibitor. The class given is cell-based.
The subject of a further assay is RKO. The class given is cell-based. As to conditions: RKO, read-out: Basal_Viability ATP RKO.
Another assay concerns NCI-H716 cells. The assay is classed as cell-based, Human.
Assay [3] concerns nuclear β-catenin in C2C12 cells. The assay is classed as cell-based.
A further assay deals with Colo320. The assay is classed as cell-based. As to conditions: Homo sapiens, COLO 320; read-out: Basal_Viability ATP Colo 320.
[4] abbreviates: Homo sapiens, HeLa, S2 Table, HeLa, 20 = no response at highest concentration.
Where [5] appears, read: Rattus norvegicus, INS-1E, read-out: Ins. sec. EC50.
[6] abbreviates: Homo sapiens, DLD-1, 72 h, Table 2, 72 h, Cell TiterGlo, non-adherent, 20 coded, read-out: DLD-1 viab. IC50.
[7] abbreviates: Homo sapiens, DLD-1, basal, DLD-1, read-out: Basal_Viability ATP DLD-1.
The mark [8] stands for this setting: Homo sapiens; read-out: Anti-Angio IC50.
Setting [9] is: Homo sapiens, NCI-H716, read-out: GLP1 sec. EC50.
The mark [10] stands for this setting: Mus musculus, C2C12, read-out: Wnt Pathway.
[11] abbreviates: Rattus norvegicus, IC50 / EC50, INS-1E, read-out: Insulin Secretion.
The mark [12] stands for this setting: Homo sapiens, IC50 / EC50; endothelial tube area, ADSC/ECFC co-culture; read-out: Anti-Angiogenesis.
[13] abbreviates: Homo sapiens, HCT-116, GSK3b inhibitor pretreated, read-out: GSK3b inh pretreated_Viability ATP HCT116.
Setting [14] is: Homo sapiens, IC50 / EC50, NCI-H716, read-out: GLP 1 Secretion.
Setting [15] is: Rattus norvegicus, INS-1E, read-out: Insulin Secretion.
The mark [16] stands for this setting: Homo sapiens, SW480, basal, SW480, read-out: Basal_Viability ATP SW480.
Setting [17] is: Homo sapiens; read-out: Anti-Angiogenesis.
Setting [18] is: Homo sapiens, HCT-116, basal, HCT116, read-out: Basal_Viability ATP HCT116.
The mark [19] stands for this setting: Homo sapiens, HCT-116, HCT116 pretreated with GSK3b inhibitor, read-out: GSK3b inh pretreated_Viability ATP HCT116.
The mark [20] stands for this setting: Homo sapiens, NCI-H716, read-out: GLP 1 Secretion.
Setting [21] is: Homo sapiens, SW480, 72 h, Table 2, 72 h, Cell TiterGlo, non-adherent, 20 coded, read-out: SW480 viab. IC50.
Setting [22] is: Homo sapiens, HCT-116, 72 h, read-out: HCT-116 viab. IC50, Table 2, basal, 72 h, Cell TiterGlo, non-adherent, 20 coded.
The mark [23] stands for this setting: Mus musculus, C2C12, Table 2, C2C12, […], 20 / 20.1 coded, read-out: Wnt pot. EC50.
The mark [24] stands for this setting: Homo sapiens, HeLa, IC50 / EC50, HeLa.
Where [25] appears, read: Homo sapiens, SW480, basal, read-out: Basal_Viability ATP SW480.
The mark [26] stands for this setting: Homo sapiens, DLD-1, basal, read-out: Basal_Viability ATP DLD-1.
[27] abbreviates: Homo sapiens, HCT-116, basal, read-out: Basal_Viability ATP HCT116.
Setting [28] is: Homo sapiens, HCT-116, read-out: HCT-116 (GSK3β) viab. IC50, Table 2, GSK3β inhibitor LY2090314 20 nM, 72 h, Cell TiterGlo, 20 coded.

Like-named read-outs stand apart in the source and are kept apart here.

In the case of `N=C(N)NN=C(/C=C/c1ccc([N+](=O)[O-])o1)/C=C/c1ccc([N+](=O)[O-])o1` [Nitrovin], the EC50 in the assay on HeLa cells (S2 Table, HeLa, 20 = no response at highest concentration) is more than 10 µM; in the assay on INS-1E cells (S2 Table, module primary assay, 20 / 20.1 codes per legend, read-out: Insulin Secretion) it was more than 10 µM; in the assay on NCI-H716 cells (S2 Table, module primary assay, 20 / 20.1 codes per legend, read-out: GLP 1 Secretion), more than 10 µM; in [3] (read-out: Wnt Pathway) it was 372 nM. Moreover, the IC50 was 0.0076 µM in the assay on SW480 (basal, SW480, read-out: Basal_Viability ATP SW480); more than 20000 nM with DLD-1 (basal, DLD-1, read-out: Basal_Viability ATP DLD-1); more than 10000 nM in assay [1] (S2 Table; module primary assay; 20 = no response at highest concentration, 20.1 = inactive in single concentration testing; read-out: Anti-Angiogenesis); 136 nM with HCT116 (basal, HCT116, read-out: Basal_Viability ATP HCT116); 1350 nM with SNU-C1 (basal, SNU-C1, read-out: Basal_Viability ATP SNU-C1); 23.7 nM in assay [2] (HCT116 pretreated with GSK3b inhibitor, read-out: GSK3b inh pretreated_Viability ATP HCT116). In addition, in the assay with RKO (basal), the IC50 stood at 12.8 nM.
With `CN(Cc1cnc2nc(N)nc(N)c2n1)c1ccc(C(=O)N[C@@H](CCC(=O)O)C(=O)O)cc1` [methotrexate, reference compound], the EC50 in the assay on HeLa cells (setting [4]) was more than 10 µM; with INS-1E cells (setting [5]), more than 10 µM; with NCI-H716 cells (setting [9]) it was more than 10 µM; in assay [3] (setting [10]), 11.6 nM; in assay [3] (Mus musculus, C2C12, read-out: Wnt pot. EC50), 12 nM. Besides, the IC50 with DLD-1 (setting [6]) is 700 nM; in the assay on DLD-1 (setting [7]), 704 nM; in assay [1] (setting [8]) it was more than 10000 nM; in the assay on SNU-C1 (Homo sapiens, SNU-C1, 72 h, Table 2, 72 h, Cell TiterGlo, non-adherent, 20 coded, read-out: SNU-C1 viab. IC50), more than 20000 nM.
As for `COc1cccc2c1C(=O)c1c(O)c3c(c(O)c1C2=O)C[C@@](O)(C(=O)CO)C[C@@H]3O[C@H]1C[C@H](N2CCO[C@H](OC)C2)[C@H](O)[C@H](C)O1` [nemorubicin], the EC50 in the assay on HeLa cells (Homo sapiens, IC50 / EC50, HeLa) was more than 10 µM; in the assay with INS-1E cells (setting [11]) it was more than 10 µM; in the assay on NCI-H716 cells (setting [14]), more than 10 µM; in assay [3] (Mus musculus, IC50 / EC50, C2C12 beta-catenin translocation, read-out: Wnt Pathway), 13.5 nM. Besides, the IC50 in the assay on SW480 (Homo sapiens, SW480, read-out: Basal_Viability ATP SW480) was 0.001 µM; in the assay with DLD-1 (Homo sapiens, DLD-1, read-out: Basal_Viability ATP DLD-1), 1 nM; in [1] (setting [12]) it was 3 nM; in assay [2] (setting [13]), 1 nM; in the assay with RKO (Homo sapiens), 1 nM; in the assay with Colo320, 1 nM.
In the case of `CC(=O)Oc1ccccc1C(=O)Nc1ncc([N+](=O)[O-])s1` [nitazoxanide], the EC50 in the assay on HeLa cells (setting [4]) was more than 10 µM; with INS-1E cells (setting [15]) it was more than 10 µM; with NCI-H716 cells (setting [20]), more than 10 µM; in assay [3] (Mus musculus, C2C12, S2 Table, module primary assay, 20 / 20.1 codes per legend, read-out: Wnt Pathway), more than 10000 nM. Further, the IC50 was determined as 3.03 µM in the assay on SW480 (setting [16]); 3090 nM in the assay with DLD-1 (setting [7]); 2060 nM in [1] (setting [17]); 2810 nM in the assay with HCT116 (setting [18]); 2460 nM in assay [2] (setting [19]).
Regarding `CCCCc1ccc2[nH]c(NC(=O)OC)nc2c1` [parbendazole], the EC50 in the assay on HeLa cells (setting [4]) was 0.0106 µM; in the assay on INS-1E cells (setting [15]), more than 10 µM; in the assay on NCI-H716 cells (setting [20]), more than 10 µM; in assay [3] (setting [10]), 33.6 nM. In addition, the IC50 with SW480 (setting [16]) amounted to 1.99 µM; in the assay on DLD-1 (setting [7]) it was 640 nM; in assay [1] (setting [17]), 53 nM; in the assay with HCT116 (setting [18]), 118 nM; in assay [2] (setting [19]), 105 nM.
With `Cc1ccc(Nc2nccc(N(C)c3ccc4c(C)n(C)nc4c3)n2)cc1S(N)(=O)=O` [pazopanib, reference compound], the EC50 with HeLa cells (setting [4]) is more than 10 µM; in the assay with INS-1E cells (setting [5]), more than 10 µM; in the assay with NCI-H716 cells (setting [9]), more than 10 µM; in [3] (setting [23]), more than 10000 nM. Also, the IC50 was 5.7 µM in the assay with SW480 (setting [21]); 5.68 µM with SW480 (setting [16]); more than 20000 nM with DLD-1 (setting [6]); 47 nM in assay [1] (setting [8]); 46.5 nM in [1] (setting [17]); more than 20000 nM in the assay on HCT116 (setting [22]). The IC50 in [2] (Homo sapiens, HCT-116, 72 h, read-out: HCT-116 (GSK3β) viab. IC50) was more than 20000 nM. The “activity in the Wnt potentiation module (in words)” value in [3] was “None of these agents, however, possessed appreciable activity”.
Regarding `NCCNc1ccc(NCCN)c2c1C(=O)c1ccncc1C2=O` [pixantrone], the EC50 was 0.0483 µM in the assay on HeLa cells (setting [24]); more than 10 µM with INS-1E cells (setting [11]); more than 10 µM with NCI-H716 cells (setting [14]); more than 10000 nM in assay [3] (Mus musculus, C2C12, IC50 / EC50, C2C12 beta-catenin translocation, read-out: Wnt Pathway). Further, the IC50 in the assay on SW480 (setting [25]) is more than 20 µM; with DLD-1 (setting [26]), more than 20000 nM; in assay [1] (setting [12]), 46.5 nM; with HCT116 (setting [27]) it was more than 20000 nM; in [2] (setting [13]), 14600 nM.
With `CC(C)=CCC/C(C)=C/CC/C(C)=C/C(=O)OCC(=O)[C@@]1(O)CC[C@H]2[C@@H]3CCC4=CC(=O)C=C[C@]4(C)[C@H]3[C@@H](O)C[C@@]21C` [prednisolone farnesil], the EC50 was more than 10 µM in the assay on HeLa cells, more than 10 µM in the assay on INS-1E cells (read-out: Insulin Secretion), more than 10 µM with NCI-H716 cells (read-out: GLP 1 Secretion) and more than 10000 nM in assay [3] (read-out: Wnt Pathway). For the same compound, the IC50 came out at 8.11 µM with SW480 (read-out: Basal_Viability ATP SW480); 7930 nM in the assay with DLD-1 (read-out: Basal_Viability ATP DLD-1); 3340 nM in assay [1] (read-out: Anti-Angiogenesis); 5740 nM with HCT116 (read-out: Basal_Viability ATP HCT116); 7190 nM in assay [2] (read-out: GSK3b inh pretreated_Viability ATP HCT116).
Consider `CCN(CC)CCNC(=O)c1c(C)[nH]c(/C=C2\C(=O)Nc3ccc(F)cc32)c1C` [sunitinib, reference compound], for which the EC50 was more than 10 µM with HeLa cells (setting [24]), more than 20 µM in the assay with INS-1E cells (setting [5]), more than 10 µM in the assay on NCI-H716 cells (setting [9]) and more than 10000 nM in [3] (setting [23]). Further, the IC50 in the assay with SW480 (setting [21]) stood at 2.8 µM; in the assay on SW480 (setting [25]), 2.76 µM; in the assay on DLD-1 (setting [6]), 1600 nM; in the assay on DLD-1 (setting [26]), 1630 nM; in [1] (Homo sapiens, read-out: Anti-Angio IC50) it was 25 nM; in assay [1] (Homo sapiens, read-out: Anti-Angiogenesis) it was 25.4 nM. The IC50 with HCT116 (setting [22]) turned out to be 2300 nM; in the assay with HCT116 (setting [27]), 2310 nM; in assay [2] (setting [28]), 360 nM; in assay [2] (setting [13]), 361 nM.
`Clc1ccc(Nc2nnc(Cc3ccncc3)c3ccccc23)cc1` [vatalanib, reference compound]: in the assay on HeLa cells, the “G2/M IC50 / EC50” value is 20 (values shown as 20 indicate that the compound was tested in concentration-response and showed no response at the highest concentration tested (e.g. IC50 > 20 μM)). Moreover, the EC50 was more than 10 µM with HeLa cells (setting [4]), more than 10 µM with INS-1E cells (setting [5]), more than 10 µM in the assay on NCI-H716 cells (setting [9]) and more than 10000 nM in [3] (setting [23]). The IC50 was 19.5 µM in the assay with SW480 (setting [21]); 19.5 µM in the assay on SW480 (setting [16]); more than 20000 nM in the assay on DLD-1 (setting [6]); 110 nM in [1] (setting [8]); 111 nM in [1] (setting [17]); more than 20000 nM in the assay on HCT116 (setting [22]). The IC50 in assay [2] (setting [28]) and in [2] (setting [19]) was 10500 nM each time. In addition, in assay [3], the “activity in the Wnt potentiation module (in words)” value was “None of these agents, however, possessed appreciable activity”.
